These results are taken from US20260124170A1, “PHARMACEUTICAL COMPOSITION COMPRISING METABOLITE OF ENAVOGLIFLOZIN, AND USE THEREOF” (DAEWOONG PHARMACEUTICAL CO., LTD., priority 2022, published 2026).

Holding throughout (assay type): cell-based
Assay [1] addresses T1, SGLT2 (Homo sapiens, UniProt P31639).
T1 construct: expressed in transfected cells
T1 sequence (P31639 1-672): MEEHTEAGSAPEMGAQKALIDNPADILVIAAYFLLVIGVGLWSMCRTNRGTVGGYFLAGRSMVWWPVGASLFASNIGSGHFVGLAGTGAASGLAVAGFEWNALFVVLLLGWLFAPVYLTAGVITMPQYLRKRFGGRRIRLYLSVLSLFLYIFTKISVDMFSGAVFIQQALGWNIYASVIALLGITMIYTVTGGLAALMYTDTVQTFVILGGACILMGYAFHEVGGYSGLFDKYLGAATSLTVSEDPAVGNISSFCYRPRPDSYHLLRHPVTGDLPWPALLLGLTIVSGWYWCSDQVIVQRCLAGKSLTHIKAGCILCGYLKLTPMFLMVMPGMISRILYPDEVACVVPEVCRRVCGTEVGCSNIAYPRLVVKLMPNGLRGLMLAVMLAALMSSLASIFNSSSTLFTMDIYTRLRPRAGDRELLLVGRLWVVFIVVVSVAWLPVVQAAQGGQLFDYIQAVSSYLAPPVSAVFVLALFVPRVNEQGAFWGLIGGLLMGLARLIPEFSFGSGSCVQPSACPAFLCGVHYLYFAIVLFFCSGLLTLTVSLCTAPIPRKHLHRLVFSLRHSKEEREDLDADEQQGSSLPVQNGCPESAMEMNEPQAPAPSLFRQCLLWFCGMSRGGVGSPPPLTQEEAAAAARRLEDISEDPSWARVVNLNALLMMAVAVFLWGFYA
Kind of assay: Inhibition of [14C]AMG uptake in SGLT2-overexpressing CHO cells. The note with it: for IC50: CHO-SGLT2 cells, 10 μM [14C]AMG, 2 h, 37° C.; for IC50 ratio (SGLT1/SGLT2): ratio of SGLT1 IC50 to SGLT2 IC50. As to the method:
The evaluation was performed in the same manner as the evaluation of SGLT1 inhibition, except that an SGLT2-overexpressing cell line (CHO-SGLT2 stable cells) was used, and the inhibitory evaluation substances described below were used.

Assay [2] has as its target T2, SGLT1 (Homo sapiens, UniProt P13866).
T2 construct: expressed in transfected cells
T2 sequence (P13866 1-664): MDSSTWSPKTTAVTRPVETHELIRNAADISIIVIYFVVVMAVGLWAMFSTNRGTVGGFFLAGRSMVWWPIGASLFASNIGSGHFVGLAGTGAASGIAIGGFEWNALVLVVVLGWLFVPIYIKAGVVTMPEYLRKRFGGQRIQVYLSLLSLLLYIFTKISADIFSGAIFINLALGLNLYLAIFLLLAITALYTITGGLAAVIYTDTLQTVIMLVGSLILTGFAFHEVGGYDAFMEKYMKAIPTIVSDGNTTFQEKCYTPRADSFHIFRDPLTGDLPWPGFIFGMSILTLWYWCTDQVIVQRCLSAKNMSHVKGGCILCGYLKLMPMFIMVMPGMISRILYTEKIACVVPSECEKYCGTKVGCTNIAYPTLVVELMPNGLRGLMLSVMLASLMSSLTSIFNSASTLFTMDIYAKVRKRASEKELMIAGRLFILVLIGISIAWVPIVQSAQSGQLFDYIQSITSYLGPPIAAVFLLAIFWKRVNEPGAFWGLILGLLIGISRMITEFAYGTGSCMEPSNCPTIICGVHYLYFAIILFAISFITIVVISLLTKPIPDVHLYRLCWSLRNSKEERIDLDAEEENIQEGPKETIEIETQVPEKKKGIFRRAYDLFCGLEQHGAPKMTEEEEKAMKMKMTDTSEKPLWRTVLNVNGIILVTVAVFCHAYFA
Kind of assay: Change in SGLT1 inhibition according to drug pretreatment time (CHO-SGLT1). The settings on record: for IC50: CHO-SGLT1; for Change in SGLT1 inhibition as exposure time increased: pretreatment 0, 1, 2 h, one-way ANOVA. From the text:
All data values are expressed as the mean±SD of […].

In assay [3] the target is T1, SGLT2. Kind of assay: Whole-cell patch clamp glucose current, binding and dissociation, CHO-SGLT2. The note with it: for Dissociation degree T1/2, off (s), SGLT2: washout. Here is the method: When SGLT1- and SGLT2-overexpressing cell lines (CHO-SGLT1, CHO-SGLT2 stable cells) were cultured to reach 60% confluency, the cells were treated with 0.05% trypsin to detach the cells from the bottom of the plate, suspended in 200 μL of culture medium, and used at room temperature.
Glucose reabsorption is induced by the Na^+ electrochemical potential gradient in the kidneys via SGLT2, and glucose diffuses across the cell membrane into the blood via glucose transporter 2 (GLUT-2), which enables facilitated glucose transport. While one Na^+ ion is absorbed per glucose molecule through SGLT2, two Nations are absorbed per glucose molecule through SGLT1. Therefore, by varying the composition of the buffer, only the glucose current was recorded, excluding the Na^+ current.
The experiment was conducted as described below.
1) Using a Narishige puller, a glass micropipette was made in two stages of 62.7° C. and 57° C., filled with an internal solution (145 mM CsCl, 5 mM NaCl, 10 mM HEPES, 11 mM ethylene glycol-bis(2-aminoethylether)-N,N,N′,N′-tetraacetic acid (EGTA), pH 7.2), and then inserted into the Ag/AgCl2 electrode of the patch clamp head-stage.
2) SGLT1 or SGLT2 cells were seeded on a chamber which was coated with poly-L-lysine in advance, and then an external solution (150 mM NaCl, 10 mM HEPES, 1 mM CaCl2), 1 mM MgCl2, pH 7.4) was flowed to ensure that the cells were sufficiently submerged. A temperature control device was used to maintain the temperature of the chamber at 36.5±0.5° C.
3) Using a micromanipulator, the glass micropipette was attached to the cell membrane to create a giga-ohm seal, which was then ruptured to detach the cell membrane (whole-cell mode, 3 to 5 MΩ).
4) The cells were fixed at −60 mV (holding potential), and the current [I^total current (Na^+/Glucose current (pA))] was measured in a gap-free data acquisition mode.
5) The external solution was continuously flowed into the chamber containing the cells, and the current (I^total) was recorded for about 30 seconds to 1 minute (stabilization), and then the external solution with added glucose (Na^+/Glucose external) (150 mM NaCl, 10 mM HEPES, 1 mM CaCl2), 1 mM MgCl2, 100 mM glucose, pH 7.4) was flowed to record the glucose current (I^glucose). Then, the cells were exposed to the external solution with added glucose containing one concentration of the compound for two minutes, and the glucose current suppressed by the compound was recorded.
7) After confirming the recovery of the current, the solution was replaced with a sodium-free external solution (Na^+-free external) (150 mM Choline-Cl, 1 mM CaCl2), 1 mM MgCl2, pH 7.4) and the Na^+ current was recorded. After the current was stabilized, the solution was replaced with the external solution to record the current in the resting state when the cells were not stimulated, thereby securing the reliability of the experimental system.
For statistical analysis of data, pCLAMP10.4 (Molecular Devices, LLC, San Jose, CA, USA) or Origin6.0 (OriginLab, Northampton, MA, USA) was used.
The test results were expressed as the mean±SD of the mean. Statistical significance was verified using the nonparametric Kruskal-Wallis test using Statistical Package for the Social Sciences (SPSS) for Windows (version 26.0, IBM Corp., Armonk, NY, USA). The significance level was set at p<0.05.
In general terms: In patch-clamp work, channel activity is measured electrically.

The mark [4] stands for this setting: IC50 according to pretreatment time (nM), SGLT1, 1 h, 1 h pretreatment in sodium-free buffer.
The mark [5] stands for this setting: IC50 according to pretreatment time (nM), SGLT1, 2 h, 2 h pretreatment in sodium-free buffer.
[6] abbreviates: no pretreatment, read-out: IC50 according to pretreatment time (nM), SGLT1, 0 h.

“And” between values parts separate entries of the source, which are not always exact repeats. Equal entries are not always repeated. Where two headings read alike, the source gives them in different places. Marks after values point to notes of the source that are not given here.

As for `OC[C@H]1O[C@@H](c2cc(Cc3ccc(C4(O)CC4)cc3)c(Cl)c3c2CCO3)[C@H](O)[C@@H](O)[C@@H]1O` [M2, (2S,3R,4R,5S,6R)-2-(7-chloro-6-(4-(1-hydroxycyclopropyl)benzyl)-2,3-dihydrobenzofuran-4-yl)-6-(hydroxymethyl)tetrahydro-2H-pyran-3,4,5-triol], the IC50 is 0.00302 ± 0.00036 µM in assay [1], 1020 ± 225 nM in assay [2] (setting [4]), 1180 ± 177 nM in assay [2] (setting [5]) and 1080 ± 71 nM in assay [2] (setting [6]). The “IC50 ratio (SGLT1/SGLT2)” value in assay [1] is listed as 402. Also, in assay [2], the “Change in SGLT1 inhibition as exposure time increased” value is “did not show any significant change or increase in inhibition”. Also, the “Dissociation rate from SGLT2, times slower than enavogliflozin” value in assay [3] (ratio of T1/2,off) is listed as 1.38 times. In assay [3] (treatment concentration 200 μM), the “Binding affinity T1/2, on (s), SGLT2” value is listed as 51.8 ± 10.5*^, + s. The “Dissociation degree T1/2, off (s), SGLT2” value in assay [3] (treatment concentration 200 μM) is 540.4 s and 540.4 ± 217.0^+, # s.

`OC[C@H]1O[C@@H](c2cc(Cc3ccc(C4CC4)cc3)c(Cl)c3c2CC(O)O3)[C@H](O)[C@@H](O)[C@@H]1O` (stereo partly drawn) [M1, (2S,3R,4R,5S,6R)-2-(7-chloro-6-(4-cyclopropylbenzyl)-2-hydroxy-2,3-dihydrobenzofuran-4-yl)-6-(hydroxymethyl)tetrahydro-2H-pyran-3,4,5-triol]: the IC50 worked out at 0.00471 ± 0.00069 µM in assay [1], 103 ± 22.4 nM in assay [2] (setting [4]), 76.6 ± 1.2 nM in assay [2] (setting [5]) and 29.2 ± 13.5 nM in assay [2] (setting [6]). Besides, the “IC50 ratio (SGLT1/SGLT2)” value in assay [1] came out at 6.0. Moreover, the “Change in SGLT1 inhibition as exposure time increased” value in assay [2] is given as “significantly increased”. In assay [3] (ratio of T1/2,off), the “Dissociation rate from SGLT2, times slower than enavogliflozin” value came to 2 times. Further, the “Binding affinity T1/2, on (s), SGLT2” value in assay [3] (treatment concentration 200 μM) was 52.5 ± 3.8*^, + s. Further, in assay [3] (treatment concentration 200 μM), the “Dissociation degree T1/2, off (s), SGLT2” value is 369.9 s and 369.9 ± 56.5 ^ s.

For `OC[C@H]1O[C@@H](c2cc(Cc3ccc(C4CC4)cc3)c(Cl)c3c2CCO3)[C@H](O)[C@@H](O)[C@@H]1O` [Enavogliflozin, (2S,3R,4R,5S,6R)-2-(7-chloro-6 (4-cyclopropylbenzyl)-2,3-dihydrobenzofuran-4-yl)-6-(hydroxymethyl)tetrahydro-2H-pyran-3,4,5-triol], the IC50 is 0.00034 ± 8e-05 µM in assay [1], 889 ± 238 nM in assay [2] (setting [4]), 829 ± 194 nM in assay [2] (setting [5]) and 867 ± 163 nM in assay [2] (setting [6]). The “IC50 ratio (SGLT1/SGLT2)” value in assay [1] is recorded as 2538. The “Change in SGLT1 inhibition as exposure time increased” value in assay [2] is listed as “did not show any significant change or increase in inhibition”. In assay [3] (ratio of T1/2,off), the “Dissociation from SGLT2, times slower than dapagliflozin” value is “about 2.8 times”. Further, the “Binding affinity T1/2, on (s), SGLT2” value in assay [3] (treatment concentration 100 μM) is 29.5 ± 5.5 s. The “Dissociation degree T1/2, off (s), SGLT2” value is recorded as 745.5^+, # s in assay [3] (treatment concentration 100 μM) and 745.5 s in assay [3] (treatment concentration 100 μM, listed as enavogliflozin).

The IC50 is the concentration needed to halve the response being measured.
